Experimental findings from patent US8846694B2, “Pyrrolidone derivatives for use as MetAP-2 inhibitors” (Merck Patent GmbH, priority 2008, dated 2014) are described below.

Structures are written as SMILES.

Sequence of MetAP-2 (P50579 whole entry, species assumed): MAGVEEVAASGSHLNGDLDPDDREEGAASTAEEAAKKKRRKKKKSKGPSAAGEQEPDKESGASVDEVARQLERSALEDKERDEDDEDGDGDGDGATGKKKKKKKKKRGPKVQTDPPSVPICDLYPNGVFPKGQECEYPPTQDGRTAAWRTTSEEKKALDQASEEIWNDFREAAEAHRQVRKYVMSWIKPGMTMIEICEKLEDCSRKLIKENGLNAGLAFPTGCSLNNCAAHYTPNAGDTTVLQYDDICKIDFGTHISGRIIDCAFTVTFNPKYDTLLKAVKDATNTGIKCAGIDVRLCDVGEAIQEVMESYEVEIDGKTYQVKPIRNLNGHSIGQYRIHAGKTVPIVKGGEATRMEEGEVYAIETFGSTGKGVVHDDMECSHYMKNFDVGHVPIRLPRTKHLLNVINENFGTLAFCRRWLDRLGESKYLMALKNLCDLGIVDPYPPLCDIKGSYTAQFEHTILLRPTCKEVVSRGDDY

The assay addresses MetAP-2 (Homo sapiens, UniProt P50579). Put plainly: MetAP-2 activity measurement (coupled enzymatic reactions, substrate Met-Arg-Ser, photometric at 450 nm). The conditions noted are these: read-out: IC50 enzyme (Inhibition of MetAP-2). The format is biochemical. Here is the method:
MetAP-2 Activity Measurement
The MetAP-2 activity is determined by coupling enzymatic reactions. The tripeptide Met-Arg-Ser (MAS) is employed as substrate. The methionine liberated is firstly converted into Metox and H2O2 by L-aminooxidase (AAO). In the second step, the peroxidase (POD) with the aid of the H2O2 catalyses the oxidation of the leukodye dianisidine to dianisidineox, the increase of which is detected photometrically at 450 nm.
MetAP-2 activity can be recorded continuously as kinetics. The reaction scheme illustrates that one mol of dianisidineox is formed per mol of methionene. The MetAP-2 enzyme activity can therefore be calculated directly as Δ absorption per time unit. […] of the MetAP-2 activity (mol of Met/time unit) is possible with the aid of the dianisidineox extinction coefficient.
The change in extinction per time unit is depicted graphically and a slope calculation is carried out in the visually linear region of the reaction.
What is called IC50 is the concentration at which inhibition is half-maximal. As for `CN(C)C(=O)CC1CCc2c(OC[C@H]3CCCN3c3ncnc4[nH]cnc34)cccc2C1=O` (stereo partly drawn) [A173, N,N-Dimethyl-2-{1-oxo-5-[(R)-1-(9H-purin-6-yl)-pyrrolidin-2-ylmethoxy]-1,2,3,4-tetrahydro-naphthalen-2-yl}acetamide], the IC50 is 0.01 to 1 µM.
Under `c1ccc2c(c1)[nH]c1cccc(OC[C@H]3CCCN3c3ncnc4[nH]cnc34)c12` [A38, 4-[(R)-1-(9H-Purin-6-yl)pyrrolidin-2-ylmethoxy]-9H-carbazole] stands 0.01 to 1 µM; under `c1ccc(-c2ccccc2OC[C@H]2CCCN2c2ncnc3[nH]cnc23)cc1` [A62, 6-[(R)-2-(Biphenyl-2-yloxymethyl)pyrrolidin-1-yl]-9H-purine], 1 to 10 µM.
Regarding `c1cc(OC[C@H]2CCCN2c2ncnc3[nH]cnc23)c2nccc(CN3CCOCC3)c2c1` [A56, 4-Morpholin-4-ylmethyl-8-[(R)-1-(9H-purin-6-yl)-pyrrolidin-2-ylmethoxy]quinoline], the half-inhibitory concentration (IC50) lay within 1 to 10 µM.
The same measure for `COC(=O)c1c(OC[C@H]2CCCN2c2ncnc3[nH]cnc23)c2cc(F)ccc2n1C` [A151, Methyl 5-fluoro-1-methyl-3-[(R)-1-(9H-purin-6-yl)pyrrolidin-2-ylmethoxy]-1H-indole-2-carboxylate]: 0.01 to 1 µM.
The same measure for `O=C1/C(=C\c2cc[nH]n2)CCc2c(OC[C@H]3CCCN3c3ncnc4[nH]cnc34)cccc21` [A83, 5-[(R)-1-(9H-Purin-6-yl)pyrrolidin-2-ylmethoxy]-2-[1-(1H-pyrazol-3-yl)meth-(Z)-yildene]-3,4-dihydro-2H-naphthaien-1-one]: 0.01 to 1 µM; for `CCCCn1c(C)c(C(=O)OCC)c2cc(OC[C@H]3CCCN3c3ncnc4[nH]cnc34)ccc21` [A39, Ethyl 1-butyl-2-methyl-5-[(R)-1-(9H-purin-6-yl)-pyrrolidin-2-ylmethoxy]-1H-indole-3-carboxylate]: 1 to 10 µM.
Consider `CC(C)(C)OC(=O)N[C@@H](Cc1c[nH]cn1)C(=O)Nc1ccc2cccc(OC[C@H]3CCCN3c3ncnc4[nH]cnc34)c2c1` [A163, tert-Butyl ((S)-2-(1H-imidazol-4-yl)-1-{8-[(R)-1-(9H-purin-6-yl)pyrrolidin-2-ylmethoxy]-naphthalen-2-ylcarbamoyl}ethyl)carbamate], for which the IC50 fell in the range of 1 to 10 µM.
Under `Cn1ncc(Cl)c1/C=C1/CCc2c(OC[C@H]3CCCN3c3ncnc4[nH]cnc34)cccc2C1=O` [A82, 2-[1-(4-Chloro-2-methyl-2H-pyrazol-3-yl)meth-(Z)-ylidene]-5-[(R)-1-(9H-purin-6-yl)pyrrolidin-2-ylmethoxy]-3,4-dihydro-2H-naphthalen-1-one] stands 0.01 to 1 µM; under `CCCCOC1=Cc2c(cccc2OC[C@H]2CCCN2c2ncnc3[nH]cnc23)CC1` [A119, 6-[(R)-2-(7-Butoxy-5,6-dihydronaphthalen-1-yl-oxymethyl)pyrrolidin-1-yl]-9H-purine], 1 to 10 µM.
As to `Oc1ccc2cccc(NC[C@H]3CCCN3c3ncnc4[nH]cnc34)c2c1` [A131, 8-{[(R)-1-(9H-Purin-6-yl)pyrrolidin-2-ylmethyl]-amino}naphthalen-2-ol], the IC50 is more than 10 µM.
Under `Cc1cc2c(OC[C@H]3CCCN3c3ncnc4[nH]cnc34)cccc2n1C(=O)C(F)(F)F` [A75, 2,2,2-Trifluoro-1-{2-methyl-4-[(R)-1-(9H-purin-6-yl)pyrrolidin-2-ylmethoxy]indol-1-yl}ethanone] stands 1 to 10 µM.
The same measure for `CN(C)C(=O)C[C@H]1CCc2c(OC[C@H]3CCCN3c3ncnc4[nH]cnc34)cccc2C1=O` [A175, N,N-Dimethyl-2-{(R)-1-oxo-5-[(R)-1-(9H-purin-6-yl)pyrrolidin-2-ylmethoxy]-1,2,3,4-tetrahydro-naphthalen-2-yl}acetamide]: 0.01 to 1 µM; for `CC(=O)N1CCN(Cc2ccc(OC[C@H]3CCCN3c3ncnc4[nH]cnc34)c3ccccc23)CC1` [A111, 1-(4-{4-[(R)-1-(9H-Purin-6-yl)pyrrolidin-2-yl-methoxy]naphthalen-1-ylmethyl}piperazin-1-yl)-ethanone]: 0.01 to 1 µM.
Under `c1ccc(-c2ccc(OC[C@H]3CCCN3c3ncnc4[nH]cnc34)cc2)cc1` [A64, 6-[(R)-2-(Biphenyl-4-yloxymethyl)pyrrolidin-1-yl]-9H-purine] stands more than 10 µM; under `Cn1ncc(Cl)c1C[C@H]1CCc2c(OC[C@H]3CCCN3c3ncnc4[nH]cnc34)cccc2C1=O` [A126, (R)-2-(4-Chloro-2-methyl-2H-pyrazol-3-yl-methyl)-5-[(R)-1-(9H-purin-6-yl)pyrrolidin-2-yl-methoxy]-3,4-dihydro-2H-naphthalen-1-one], 0.01 to 1 µM; under `O=C(NCCN1CCOCC1)c1cccc(-c2ncc(OC[C@H]3CCCN3c3ncnc4[nH]cnc34)cn2)c1` [A66, N-(2-Morpholin-4-ylethyl)-3-{5-[(R)-1-(9H-purin-6-yl)pyrrolidin-2-ylmethoxy]pyrimidin-2-yl}-benzamide], 0.01 to 1 µM.
Regarding `O=C(OCc1ccccc1)N1CCc2cccc(OC[C@H]3CCCN3c3ncnc4[nH]cnc34)c2C1` [A120, Benzyl 8-[(R)-1-(9H-purin-6-yl)pyrrolidin-2-yl-methoxy]-3,4-dihydro-1H-isoquinoline-2-carboxylate], the IC50 lay in the range of 1 to 10 µM.
`c1cc2c(c(OC[C@H]3CCCN3c3ncnc4[nH]cnc34)c1)CCCC2` [A55, 6-[(R)-2-(5,6,7,8-Tetrahydronaphthalen-1-yl-oxymethyl)pyrrolidin-1-yl]-9H-purine]: the 50% inhibitory concentration (IC50) lay within 0.01 to 1 µM.
Under `CCCNC(=O)c1cc(OC[C@H]2CCCN2c2ncnc3[nH]cnc23)c2ccccc2n1` [A71, N-Propyl-4-[(R)-1-(9H-purin-6-yl)pyrrolidin-2-yl-methoxy]quinoline-2-carboxamide] stands 0.01 to 1 µM; under `NCCCC[C@H](NC(=O)OCc1ccccc1)C(=O)N1CCc2cccc(OC[C@H]3CCCN3c3ncnc4[nH]cnc34)c2C1` [A199, Benzyl ((S)-5-amino-1-{8-[(R)-1-(9H-purin-6-yl)-pyrrolidin-2-ylmethoxy]-3,4-dihydro-1H-isoquinolin-2-carbonyl}pentyl)carbamate], 1 to 10 µM.
Regarding `O=C(NCc1ccco1)N1CCN(c2ccc3cccc(OC[C@H]4CCCN4c4ncnc5[nH]cnc45)c3c2)CC1` [A156, N-(Furan-2-ylmethyl)-4-{8-[(R)-1-(9H-purin-6-yl)-pyrrolidin-2-ylmethoxy]naphthalen-2-yl}-piperazine-1-carboxamide], the IC50 lay within 1 to 10 µM.
The same measure for `O=C1CC[C@@H](C(=O)N2CCc3cccc(OC[C@H]4CCCN4c4ncnc5[nH]cnc45)c3C2)N1` [A192, (S)-5-{8-[(R)-1-(9H-Purin-6-yl)pyrrolidin-2-yl-methoxy]-3,4-dihydro-1H-isoquinoline-2-carbonyl}pyrrolidin-2-one]: 0.01 to 1 µM.
For the molecule `NC(=O)CCC(=O)N1CCc2cccc(OC[C@H]3CCCN3c3ncnc4[nH]cnc34)c2C1` [A202, 4-Oxo-4-{8-[(R)-1-(9H-purin-6-yl)pyrrolidin-2-yl-methoxy]-3,4-dihydro-1H-isoquinolin-2-yl}-butyramide], the IC50 is 1 to 10 µM.
Under `O=C(NCc1ccco1)Nc1ccc2cccc(OC[C@H]3CCCN3c3ncnc4[nH]cnc34)c2c1` [A159, 1-Furan-2-ylmethyl-3-{8-[(R)-1-(9H-purin-6-yl)-pyrrolidin-2-ylmethoxy]naphthalen-2-yl}urea] stands 1 to 10 µM; under `NC(=O)C[C@@H](N)C(=O)N1CCc2cccc(OC[C@H]3CCCN3c3ncnc4[nH]cnc34)c2C1` [A194, (R)-3-Amino-4-oxo-4-{8-[(R)-1-(9H-purin-6-yl)-pyrrolidin-2-ylmethoxy]-3,4-dihydro-1H-isoquinolin-2-yl}butyramide], 0.01 to 1 µM; under `CCCCNC(=O)c1cc(OC[C@H]2CCCN2c2ncnc3[nH]cnc23)c2ccccc2n1` [A70, N-Butyl-4-[(R)-1-(9H-purin-6-yl)pyrrolidin-2-yl-methoxy]quinoline-2-carboxamide], 0.01 to 1 µM.
Under `Cn1ncc(Cl)c1C[C@@H]1CCc2c(OC[C@H]3CCCN3c3ncnc4[nH]cnc34)cccc2C1=O` [A125, (S)-2-(4-Chloro-2-methyl-2H-pyrazol-3-yl-methyl)-5-[(R)-1-(9H-purin-6-yl)pyrrolidin-2-yl-methoxy]-3,4-dihydro-2H-naphthalen-1-one] stands 0.01 to 1 µM; under `CCCCOC(=O)c1cc(OC[C@H]2CCCN2c2ncnc3[nH]cnc23)c2cc(F)ccc2n1` [A139, Butyl 6-fluoro-4-[(R)-1-(9H-purin-6-yl)pyrrolidin-2-ylmethoxy]quinoline-2-carboxylate], 0.01 to 1 µM; under `NC(=O)CCn1cnc2c(N3CCC[C@@H]3COc3cccc4ccc(O)cc34)ncnc21` [A135, 3-{6-[(R)-2-(7-Hydroxynaphthalen-1-yl-oxymethyl)pyrrolidin-1-yl]purin-9-yl}-propionamide], more than 10 µM.
The same measure for `c1cc(OC[C@H]2CCCN2c2ncnc3[nH]cnc23)c2nccn2c1` [A104, 6-[(R)-2-(Imidazo[1,2-a]pyridin-8-yloxymethyl)-pyrrolidin-1-yl]-9H-purine]: 1 to 10 µM.
Take `NC(=O)C[C@H](N)C(=O)N1CCc2cccc(OC[C@H]3CCCN3c3ncnc4[nH]cnc34)c2C1` [A201, (S)-3-Amino-4-oxo-4-{8-[(R)-1-(9H-purin-6-yl)-pyrrolidin-2-ylmethoxy]-3,4-dihydro-1H-isoquinolin-2-yl}butyramide]: the IC50 was in the range of 1 to 10 µM.
Consider `CNc1ccccc1C(=O)OC[C@H]1CCCN1c1ncnc2[nH]cnc12` [A143, (R)-1-(9H-purin-6-yl)pyrrolidin-2-ylmethyl 2-methylaminobenzoate], for which the IC50 lay in the range of 0.01 to 1 µM.
Under `Clc1ccccc1OC[C@H]1CCCN1c1ncnc2ncccc12` [A22] stands more than 10 µM.
